Measured values: ChEMBL document CHEMBL1126865, “Structure-activity relationship within a series of pyrazolidinone antibacterial agents. 2. Effect of side-chain modification on in vitro activity and pharmacokinetic parameters” (J Med Chem, 1993)
Values after ≈ are worked out from the molar mass of the structure shown.

How the values were obtained:
Type in all cases: functional
Staphylococcus aureus = experiment: In vitro antibacterial activity against Staphylococcus aureus X1.1
Klebsiella aerogenes = experiment: In vitro antibacterial activity against Enterobacter aerogenes C32
Haemophilus influenzae = experiment: In vitro antibacterial activity against Haemophilus influenza C.L
Streptococcus pneumoniae = experiment: In vitro antibacterial activity against Streptococcus pneumoniae PARK
Escherichia coli = experiment: In vitro antibacterial activity against Escherichia coli EC14
[1] = system: Staphylococcus epidermidis; experiment: In vitro antibacterial activity against Staphylococcus epidermidis 222
Pseudomonas aeruginosa = experiment: In vitro antibacterial activity against Pseudomonas PS72
Klebsiella pneumoniae = experiment: In vitro antibacterial activity against Klebsiella X26

| MIC (Staphylococcus aureus) [µg/mL] | MIC (Klebsiella aerogenes) [µg/mL] | MIC (Haemophilus influenzae) [µg/mL] | MIC (Streptococcus pneumoniae) [µg/mL] | MIC (Escherichia coli) [µg/mL] | MIC [1] [µg/mL] | MIC (Pseudomonas aeruginosa) [µg/mL] | MIC (Klebsiella pneumoniae) [µg/mL] | Compound |
| --- | --- | --- | --- | --- | --- | --- | --- | --- |
| 16 (≈ 32.1 µM) | 0.25 (≈ 0.501 µM) | 0.125 (≈ 0.251 µM) | 0.06 (≈ 0.12 µM) | 0.06 (≈ 0.12 µM) | 32 (≈ 64.2 µM) | > 128 | 0.015 (≈ 0.0301 µM) | CCS(=O)(=O)C1=C(C(=O)O)N2C(=O)[C@@H](NC(=O)/C(=N/OCC3CC3)c3csc(N)n3)CN2C1 |
| 16 (≈ 32.6 µM) | 0.125 (≈ 0.255 µM) | 0.25 (≈ 0.51 µM) | 0.125 (≈ 0.255 µM) | 0.06 (≈ 0.122 µM) | 32 (≈ 65.2 µM) | > 128 | 0.03 (≈ 0.0612 µM) | CCS(=O)(=O)C1=C(C(=O)O)N2C(=O)[C@@H](NC(=O)/C(=N/OCCF)c3csc(N)n3)CN2C1 |
| 32 (≈ 68.3 µM) | 0.5 (≈ 1.07 µM) | 0.25 (≈ 0.534 µM) | 0.25 (≈ 0.534 µM) | 0.25 (≈ 0.534 µM) | 32 (≈ 68.3 µM) | > 128 | 0.125 (≈ 0.267 µM) | C#CCO/N=C(/C(=O)N[C@H]1CN2CC(S(C)(=O)=O)=C(C(=O)O)N2C1=O)c1csc(N)n1 |
| 16 (≈ 31.6 µM) | 0.5 (≈ 0.986 µM) | 1 (≈ 1.97 µM) | 0.25 (≈ 0.493 µM) | 0.25 (≈ 0.493 µM) | 32 (≈ 63.1 µM) | > 128 | 0.125 (≈ 0.247 µM) | CCS(=O)(=O)C1=C(C(=O)O)N2C(=O)[C@@H](NC(=O)/C(=N/OCCCl)c3csc(N)n3)CN2C1 |
| 16 (≈ 28.8 µM) | 4 (≈ 7.21 µM) | 0.25 (≈ 0.45 µM) | 0.06 (≈ 0.108 µM) | 1 (≈ 1.8 µM) | 32 (≈ 57.7 µM) | > 128 | 0.06 (≈ 0.108 µM) | Nc1nc(/C(=N\OCCCl)C(=O)N[C@H]2CN3CC(S(=O)(=O)c4ccccc4)=C(C(=O)O)N3C2=O)cs1 |
| 1 (≈ 2.34 µM) | > 128 | 8 (≈ 18.7 µM) | 0.125 (≈ 0.293 µM) | > 128 | 4 (≈ 9.36 µM) | > 128 | 8 (≈ 18.7 µM) | N#CC1=C(C(=O)O)N2C(=O)[C@@H](NC(=O)CSc3cc(Cl)ccc3Cl)CN2C1 |
| 16 (≈ 31.7 µM) | 0.5 (≈ 0.991 µM) | 0.5 (≈ 0.991 µM) | 0.125 (≈ 0.248 µM) | 0.25 (≈ 0.495 µM) | 64 (≈ 127 µM) | > 128 | 0.06 (≈ 0.119 µM) | CCS(=O)(=O)C1=C(C(=O)O)N2C(=O)[C@@H](NC(=O)/C(=N/OCSC)c3csc(N)n3)CN2C1 |
| 8 (≈ 17.1 µM) | 8 (≈ 17.1 µM) | 0.25 (≈ 0.535 µM) | 0.06 (≈ 0.128 µM) | 8 (≈ 17.1 µM) | 8 (≈ 17.1 µM) | > 128 | 0.125 (≈ 0.267 µM) | N#CC1=C(C(=O)O)N2C(=O)[C@@H](NC(=O)/C(=N/OCc3ccccc3)c3csc(N)n3)CN2C1 |
